Assay [1] has as its system MCF7. In words: Anticancer activity against human MCF7 cells assessed as smaller cells incubated at 0.098uM for 72 hrs by phase contrast inverted microscopic analysis. Format: functional, cell-based.
Assay [2] has as its system HepG2. Description: Anticancer activity against human HepG2 cells assessed as round cells incubated at 0.098uM for 72 hrs by phase contrast inverted microscopic analysis. It is filed as functional, cell-based.
Assay [3] relates to Caco-2. In words: Induction of apoptosis in human Caco-2 cells assessed as necrotic cells incubated at 0.098 uM for 72 hrs by annexin V-FITC based propidium iodide dual staining assay (reference value: 0.02 %). Format: functional.
Assay [4] deals with MCF7. Description: Induction of apoptosis in human MCF7 cells assessed as necrotic cells incubated at 0.098 uM for 72 hrs by annexin V-FITC based propidium iodide dual staining assay (reference value: 0.03%). Format: functional.
In assay [5] the test system is HeLa. In words: Induction of apoptosis in human HeLa cells assessed as necrotic cells incubated at 0.098 uM for 72 hrs by annexin V-FITC based propidium iodide dual staining assay (reference value: 0%). Format: functional.
The test system of assay [6] is HepG2. Description: Induction of apoptosis in human HepG2 cells assessed as necrotic cells incubated at 0.098 uM for 72 hrs by annexin V-FITC based propidium iodide dual staining assay (reference value: 0.33%). Format: functional.
In assay [7] the test system is MCF7. Description: Induction of apoptosis in human MCF7 cells assessed as total apoptotic cells incubated at 0.098 uM for 72 hrs by annexin V-FITC based propidium iodide dual staining assay (reference value: 0.04 %). It is filed as functional.
Assay [8] concerns Caco-2. Description: Induction of apoptosis in human Caco-2 cells assessed as late apoptotic cells by measuring orange to red patch incubated at 0.098 uM for 72 hrs by acridine orange-ethidium bromide dual staining based fluorescence microscopic analysis. It is filed as functional, cell-based.
In assay [9] the test system is HepG2. In words: Induction of oxidative stress in human HepG2 cells assessed as cell death by measuring redox alteration fluorescence incubated at 0.097 uM for 72 hrs in presence of dihydro dichlorofluorescein diacetate by DCFH-DA based flow cytometric analysis relative to control. It is filed as functional. A general note: In flow cytometry, cells or beads pass a laser one at a time.

Assay [10] deals with Caco-2. Description: Induction of apoptosis in human Caco-2 cells assessed as viable cells incubated at 0.017 uM for 72 hrs by annexin V-FITC based propidium iodide dual staining assay (reference value: 99.89%). Format: functional. The conditions noted are these: read-out: Activity.
For assay [11], the system named is MCF7. In words: Induction of apoptosis in human MCF7 cells assessed as viable cells incubated at 0.017 uM for 72 hrs by annexin V-FITC based propidium iodide dual staining assay (reference value: 99.9%). The note with it: read-out: Activity. Format: functional.
For assay [12], the system named is HepG2. In words: Induction of apoptosis in human HepG2 cells assessed as viable cells incubated at 0.017 uM for 72 hrs by annexin V-FITC based propidium iodide dual staining assay (reference value: 97.27%). Format: functional. The conditions noted are these: read-out: Activity.
Assay [13] relates to HepG2. In words: Induction of apoptosis in human HepG2 cells assessed as early apoptotic cells incubated at 0.017 uM for 72 hrs by annexin V-FITC based propidium iodide dual staining assay (reference value: 1.74%). It is filed as functional.
The subject of assay [14] is Caco-2. Description: Induction of apoptosis in human Caco-2 cells assessed as total apoptotic cells incubated at 0.017 uM for 72 hrs by annexin V-FITC based propidium iodide dual staining assay (reference value: 0.04 +/- 0.005%). It is filed as functional.
Assay [15] has as its system HepG2. Description: Induction of apoptosis in human HepG2 cells assessed as total apoptotic cells incubated at 0.017 uM for 72 hrs by annexin V-FITC based propidium iodide dual staining assay (reference value: 0.99 +/- 0.02%). It is filed as functional.
The subject of assay [16] is HepG2. Description: Induction of apoptosis in human HepG2 cells assessed as viable cells by measuring green uniform patch incubated at 0.017 uM for 72 hrs by acridine orange-ethidium bromide dual staining based fluorescence microscopic analysis. Format: functional, cell-based.
For assay [17], the system named is HeLa. Description: Induction of oxidative stress in human HeLa cells assessed as cell death by measuring redox alteration fluorescence incubated at 0.027 uM for 72 hrs in presence of dihydro dichlorofluorescein diacetate by DCFH-DA based flow cytometric analysis relative to control. It is filed as functional.
Assay [18] deals with Caco-2. In words: Induction of apoptosis in human Caco-2 cells assessed as caspase3/7 activation at 0.017 uM using caspase-glo 3/7 as substrate relative to control. Format: functional.
In assay [19] the test system is HepG2. In words: Induction of apoptosis in human HepG2 cells assessed as caspase3/7 activation at 0.017 uM using caspase-glo 3/7 as substrate relative to control. Format: functional.
Assay [20] has as its system Caco-2. Description: Anticancer activity against human Caco-2 cells assessed as smaller cells incubated at 0.11 uM for 72 hrs by phase contrast inverted microscopic analysis. It is filed as functional, cell-based.
Assay [21] concerns MCF7. In words: Anticancer activity against human MCF7 cells assessed as cell shrinkage incubated at 0.11 uM for 72 hrs by phase contrast inverted microscopic analysis. It is filed as functional, cell-based.
For assay [22], the system named is HeLa. In words: Anticancer activity against human HeLa cells assessed as smaller cells incubated at 0.11 uM for 72 hrs by phase contrast inverted microscopic analysis. It is filed as functional, cell-based.
Assay [23] concerns HepG2. Description: Anticancer activity against human HepG2 cells assessed as smaller cells incubated at 0.11 uM for 72 hrs by phase contrast inverted microscopic analysis. It is filed as functional, cell-based.
For assay [24], the system named is MCF7. Description: Induction of apoptosis in human MCF7 cells assessed as late apoptotic cells incubated at 0.11 uM for 72 hrs by annexin V-FITC based propidium iodide dual staining assay (reference value: 0.01%). It is filed as functional.
In assay [25] the test system is HeLa. Description: Induction of apoptosis in human HeLa cells assessed as necrotic cells incubated at 0.11 uM for 72 hrs by annexin V-FITC based propidium iodide dual staining assay (reference value: 0%). Format: functional.
Assay [26] concerns HepG2. Description: Induction of apoptosis in human HepG2 cells assessed as viable cells incubated at 0.11 uM for 72 hrs by annexin V-FITC based propidium iodide dual staining assay (reference value: 97.27%). Format: functional. The note with it: read-out: Activity.
The test system of assay [27] is MCF7. In words: Induction of oxidative stress in human MCF7 cells assessed as cell death by measuring redox alteration fluorescence incubated at 0.097 uM for 72 hrs in presence of dihydro dichlorofluorescein diacetate by DCFH-DA based flow cytometric analysis relative to control. Format: functional.
Assay [28] relates to dsDNA. In words: Induction of damage in dsDNA (unknown origin) assessed as disrupted by DNA by measuring decrease in fluorescence intensity at 100 uM incubated for 2.5 hrs by EvaGreen based fluorescence plate reader analysis. It is filed as nucleic-acid assay.
The test system of assay [29] is dsDNA. In words: Induction of damage in dsDNA (unknown origin) assessed as disrupted by DNA by measuring decrease in fluorescence intensity at 100 uM by EvaGreen based fluorescence plate reader analysis. It is filed as nucleic-acid assay. The note with it: time <= 160.0 min, TDE = time-dependent effect.
Assay [30] relates to HepG2. Description: Anticancer activity against human HepG2 cells assessed as round cells incubated at 0.097uM for 72 hrs by phase contrast inverted microscopic analysis. It is filed as functional, cell-based.
Assay [31] relates to Caco-2. Description: Induction of apoptosis in human Caco-2 cells assessed as viable cells incubated at 0.097 uM for 72 hrs by annexin V-FITC based propidium iodide dual staining assay (reference value: 99.89%). Format: functional. The note with it: read-out: Activity.
Assay [32] deals with HeLa. In words: Induction of apoptosis in human HeLa cells assessed as early apoptotic cells incubated at 0.097 uM for 72 hrs by annexin V-FITC based propidium iodide dual staining assay (reference value: 2.77%). Format: functional.
For assay [33], the system named is Caco-2. In words: Induction of apoptosis in human Caco-2 cells assessed as early apoptotic cells by measuring bright green patch incubated at 0.097 uM for 72 hrs by acridine orange-ethidium bromide dual staining based fluorescence microscopic analysis. It is filed as functional, cell-based.
Assay [34] concerns HepG2. Description: Induction of apoptosis in human HepG2 cells assessed as early apoptotic cells by measuring bright green patch incubated at 0.097 uM for 72 hrs by acridine orange-ethidium bromide dual staining based fluorescence microscopic analysis. It is filed as functional, cell-based.

Activity calls are given as the source filed them. The rule behind the calls is not given here.

On to `O=C(CN1C(=O)CN(/N=C/c2ccc([N+](=O)[O-])o2)C1=O)c1ccc(Cl)cc1`, for which the outcome in assay [1], in assay [2] and in assay [8] was Active. For the same compound, the Activity stood at 3.37% in [3]; 3.18% in assay [4]; 1.16% in [5]; 3.85% in assay [6]; 41.73% in assay [7]; 38.99% in [9].

Turning to `O=c1[nH]cc(F)c(=O)[nH]1` [FLUOROURACIL], the values for the viability at 0.017 µM in [10], in assay [11] and in assay [12] were 89.7%, 90.9% and 88.4%, respectively. Moreover, the Activity in assay [13] is given as 7.69%; in assay [14] it was 3.68%; in assay [15], 3.9%; in [17], 4.91%; in [18], 12%; in [19] it was 12%. Also, the result in assay [16] was Active.

Turning to `C#CCN1C(=O)CN(/N=C/c2ccc([N+](=O)[O-])o2)C1=O`, the outcome in assay [20], in assay [21], in [22], in assay [23] and in [28] was Active. Besides, the Activity in assay [24] is 34.7%; in assay [25], 2.48%; in assay [27], 35.5%; in assay [29], “Tde”. The viability at 0.11 µM in assay [26] was 32.1%.

In the case of `NS(=O)(=O)c1ccc(-n2cc(CN3C(=O)CN(/N=C/c4ccc([N+](=O)[O-])o4)C3=O)nn2)cc1`, the result in [30], in assay [33] and in assay [34] was Active. Besides, in assay [31], the viability at 0.097 µM was found to be 32.8%. Moreover, the Activity in [32] came to 17.31%.

Values taken from ChEMBL document CHEMBL5380816, “Inclusion of Nitrofurantoin into the Realm of Cancer Chemotherapy via Biology-Oriented Synthesis and Drug Repurposing” (J Med Chem, 2023).
